Patent publication US12503687B2, “Therapeutic bacteriophage compositions” (priority 2017, dated 2025)
“And” between values parts separate entries of the source, which are not always exact repeats. Identical values can stand only once.

System: Staphylococcus aureus strain UNT144-3
Experiment: S. aureus pneumonia model (neutropenic murine lung infection)
Assay type: in vivo, mice
Details: 100 mg/kg SC at 2 and 6 hrs post-infection; CFU assessed 24 hr
Procedure: The sensitivity of two S. aureus clinical isolates, UNT109-3 (NRS234, native valve endocarditis) and UNT144-3, that have been previously utilized in animal models of infection, was evaluated vs. the individual phage and the 4-phage panel. […] The virulence of the two strains was then evaluated in the murine lung infection model. Female Hsd:ICR(CD-1) mice (Harlan Laboratories, Houston, TX) were administered 150 and 100 mg/kg cyclophosphamide on day −4 and day −1 prior to infection to render them neutropenic. Groups of 5 mice were then anaesthetized by intraperitoneal (IP) injection of 0.15 mL of a mixture of ketamine HCl (100 mg/kg body weight) plus xylazine (10 mg/kg body weight). Once anaesthetized, mice were infected intranasally by placing drops on the external nares and allowing inhalation of the 50 μl inoculum. Twenty-four hours after infection, mice were euthanized by CO2 inhalation and lungs processed for bacterial titers. Bacterial counts were enumerated on Brain Heart Infusion agar (Difco™ Laboratories)+0.5% activated charcoal (Sigma-Aldrich) plates for ease of recovering and detecting S. aureus (Barr, J. G., et al., J. Clin. Pathol. (1987) 40:372-376). […]
Three phage panel treatment groups were evaluated for efficacy: 2×10^10 PFU/mL per phage, 2×10^9 PFU/mL per phage, and 2×10^8 PFU/mL per phage. […]

## CN[C@H](CC(C)C)C(=O)N[C@H]1C(=O)N[C@@H](CC(N)=O)C(=O)N[C@H]2C(=O)N[C@H]3C(=O)N[C@H](C(=O)N[C@H](C(=O)O)c4cc(O)cc(O)c4-c4cc3ccc4O)[C@H](O)c3ccc(c(Cl)c3)Oc3cc2cc(c3O[C@@H]2O[C@H](CO)[C@@H](O)[C@H](O)[C@H]2O[C@H]2C[C@](C)(N)[C@H](O)[C@H](C)O2)Oc2ccc(cc2Cl)[C@H]1O [Vancomycin]
  Mean ± SD log10 CFU/Lung Pair: 5.55 log10 CFU/Lung Pair and 5.55 ± 1.1 log10 CFU/Lung Pair
